Reference: paper PMC4150253 (ChemMedChem, 2014)

Tests used:
Assay type in all cases: biochemical
CAT-Tip60 (221-512 aa) = CAT-Tip60 (221-512 aa) (Homo sapiens, UniProt Q92993); experiment: Radiometric filter binding HAT assay, Tip60 catalytic domain
FL-Tip60 (1-512 aa) = FL-Tip60 (1-512 aa) (Homo sapiens, UniProt Q92993); experiment: Radiometric filter binding HAT assay, full-length Tip60
[1] = biological target: PCAF HAT domain (493-658) (Homo sapiens, UniProt Q92831); experiment: Radiometric HAT assay, PCAF HAT domain
PCAF HAT domain (493-658), sequence (Q92831 493-658): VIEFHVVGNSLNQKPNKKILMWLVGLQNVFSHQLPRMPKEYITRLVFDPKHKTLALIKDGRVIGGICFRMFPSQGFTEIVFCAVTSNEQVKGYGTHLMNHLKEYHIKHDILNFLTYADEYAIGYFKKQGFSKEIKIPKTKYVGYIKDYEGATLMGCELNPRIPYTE

CAT-Tip60 (221-512 aa), sequence (Q92993 221-512): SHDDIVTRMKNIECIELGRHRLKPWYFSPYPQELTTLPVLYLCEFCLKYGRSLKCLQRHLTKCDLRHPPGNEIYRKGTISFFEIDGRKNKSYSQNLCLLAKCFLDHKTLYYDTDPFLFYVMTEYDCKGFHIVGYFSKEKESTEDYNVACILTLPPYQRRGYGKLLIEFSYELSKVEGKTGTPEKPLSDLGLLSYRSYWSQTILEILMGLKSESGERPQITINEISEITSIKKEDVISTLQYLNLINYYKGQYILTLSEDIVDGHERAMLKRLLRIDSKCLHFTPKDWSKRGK
FL-Tip60 (1-512 aa), sequence (Q92993 1-512): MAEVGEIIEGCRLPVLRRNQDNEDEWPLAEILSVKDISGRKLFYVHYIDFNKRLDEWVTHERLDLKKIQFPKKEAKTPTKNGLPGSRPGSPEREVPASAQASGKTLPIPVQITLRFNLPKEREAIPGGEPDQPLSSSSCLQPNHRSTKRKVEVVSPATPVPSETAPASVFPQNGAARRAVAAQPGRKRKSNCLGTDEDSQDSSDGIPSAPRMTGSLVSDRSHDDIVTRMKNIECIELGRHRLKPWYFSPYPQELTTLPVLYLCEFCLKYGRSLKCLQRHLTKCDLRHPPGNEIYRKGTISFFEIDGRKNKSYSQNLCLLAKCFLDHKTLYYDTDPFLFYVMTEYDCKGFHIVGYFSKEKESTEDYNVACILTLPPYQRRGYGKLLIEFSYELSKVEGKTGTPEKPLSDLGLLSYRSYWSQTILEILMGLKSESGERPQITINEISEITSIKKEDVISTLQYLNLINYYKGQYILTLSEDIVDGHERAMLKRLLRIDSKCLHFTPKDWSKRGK

IC50 (CAT-Tip60 (221-512 aa)): 16 ± 3.1 µM
IC50 (FL-Tip60 (1-512 aa)): 9.1 ± 1 µM
IC50 [1]: 8.4 ± 0.4 µM
SMILES: CC(C)(COP(=O)(O)OP(=O)(O)OC[C@H]1O[C@@H](n2cnc3c(N)ncnc32)[C@H](O)[C@@H]1OP(=O)(O)O)[C@@H](O)C(=O)NCCC(=O)NCCS [CoASH]
